# “Also recorded” adds a separate entry of the source. Like-named read-outs stand apart in the source and are kept apart here.
# Legend:
# T. cruzi CYP51 = biological target: T1, T. cruzi CYP51 (Trypanosoma cruzi, UniProt Q7Z1V1); assay: Low throughput UV-vis binding assay; conditions: for Binding to CYP51 by UV-vis titration (in words): 0.5 µM CYP51
# T1 construct: had the first 21 residues upstream of K22 replaced with the fragment MAKKKKK; His6 (C); made in house
# Method: Hit validation in the low throughput UV-vis binding assay was performed according to a previously published but somewhat modified protocol. UV-vis absorption spectra were recorded on a Cary scanning spectrophotometer (Varian) in the 1-cm path length quartz cuvette at 23°C in 100 mM potassium phosphate buffer, pH 7.5, containing 10% glycerol, with CYP51 concentration of 0.5 µM. Compound solutions used for titration were prepared in DMSO at 100 µM and added in 2-µl aliquots to each 3 ml sample using a P2 pipetman (Gilson). Binding affinity of hits was estimated using the quadratic tight-binding equation [27]: […]
# where Aobs is the absorption shift determined at any ligand concentration; Amax is the maximal absorption shift obtained at saturation; KD is dissociation constant for the inhibitor-enzyme complex; S is the ligand concentration; Et is the total enzyme concentration.
# [1] = system: sterol biosynthesis in T. cruzi amastigotes; assay: Lipid analysis of T. cruzi amastigotes (GC-MS of membrane sterols); assay type: cell-based, Trypanosoma cruzi; conditions: amastigotes in C2C12 myoblasts, 24 h drug treatment, concentrations 5x below cidal; posaconazole 100 nM
# Method: To grow intracellular amastigotes for lipid analysis, C2C12 mouse skeletal myoblasts (4×10^6 cells) cultured in 150 cm^2 flasks as described above were infected with 80×10^6 trypomastigotes for 24 h. The cultures were treated with test compounds 72 h post-infection at concentrations 5× below cidal to avoid completely killing the parasites. Posaconazole at 100 nM was used as a positive control. […] Cells were harvested 96 h post-infection and after 24 h of drug treatment. Cell detachment was initiated by brief treatment with 10 ml of 0.25% trypsin in PBS, followed promptly by replacement with 10 ml of fresh media containing FBS. Harvested cells were washed 3× with 25 ml of PBS to remove FBS and released trypomastigotes. The suspension of infected cells was then transferred to a glass tube and centrifuged at 2000 rpm for 5 min. After washing with PBS, 2 ml of chloroform-methanol solution (2∶1 ratio) was added to re-suspend the cell pellet. Organic solvents were then evaporated under N2 flow, allowing the pellet to dry.
# For total lipid extraction, the dry cell pellet was treated with 2 ml chloroform for 24 h. Polar molecules were removed by washing the organic phase 3× with 3 ml water. The organic phase containing the sterols was subsequently dried on an evaporator under N2 flow. The lipids were re-suspended in 2 ml of chloroform-methanol (9∶1 ratio), washed again 3× with 3 ml water, dried under N2 flow and re-suspended in acetonitrile. After an additional wash 3× with 3 ml water, the acetonitrile was dried under an N2 stream. Extracted dry sterols were re-dissolved in hexane and derivatized with N,N-bis(trimethylsilyl)-2,2,2-trifluoroacetamide (BSTFA) (Pierce) by incubating at 37°C for at least 2 hours. Sterols as their trimethylsilyl (TMS) derivatives were analyzed by gas chromatography and mass spectrometry (GC-MS). GC-MS analysis and lipid identification were performed as described previously.
# [2] = system: T. cruzi-infected skeletal myoblasts (intracellular amastigotes); assay: Hit cross-validation in T. cruzi-infected mammalian cells (image-based assay); assay type: cell-based, Trypanosoma cruzi; conditions: for Intracellular amastigotes in DAPI images after 72 h treatment: Compound 1 at 0.123 µM and 10 µM, Compound 13 at 10 µM; for EC50: Trypanosoma cruzi, Myoblast
# T1 sequence (Q7Z1V1 15-481, looked up, natural form): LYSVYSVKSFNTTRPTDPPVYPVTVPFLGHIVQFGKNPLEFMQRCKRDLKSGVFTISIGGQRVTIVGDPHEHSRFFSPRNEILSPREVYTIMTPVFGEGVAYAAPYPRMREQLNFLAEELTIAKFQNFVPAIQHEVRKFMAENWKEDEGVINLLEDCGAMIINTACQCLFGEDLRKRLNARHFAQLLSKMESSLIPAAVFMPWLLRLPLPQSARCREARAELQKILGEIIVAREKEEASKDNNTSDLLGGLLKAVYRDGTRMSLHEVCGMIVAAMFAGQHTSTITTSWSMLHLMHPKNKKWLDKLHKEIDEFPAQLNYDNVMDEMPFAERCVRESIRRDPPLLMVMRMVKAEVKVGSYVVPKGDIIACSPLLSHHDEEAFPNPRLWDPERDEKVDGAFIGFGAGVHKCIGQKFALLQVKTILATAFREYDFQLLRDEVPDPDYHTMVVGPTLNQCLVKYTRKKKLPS
SMILES,Kd (T. cruzi CYP51) [nM],Binding to CYP51 by UV-vis titration (in words) (T. cruzi CYP51),Effect on membrane sterol composition by GC-MS [1],Intracellular amastigotes in DAPI images after 72 h treatment [2],"EC50 ([2]; 72 h, T. cruzi-infected myoblasts, 72 h treatment, repurchased compound, read-out: EC50 averaged from two independent cross-validation assays for individually repurchased hits) [nM]","EC50 ([2]; 72 h, T. cruzi-infected myoblasts, 72 h treatment, read-out: EC50 against T. cruzi parasites in HTS assay used to rank order the hits) [nM]","Kd (T. cruzi CYP51; UV-vis titration, 0.5 µM CYP51, quadratic tight-binding equation, lower limit of method ~5 nM, read-out: KD) [nM]","EC50 ([2]; 72 h, T. cruzi-infected myoblasts, 72 h treatment, read-out: EC50 in image-based HTS cross-validation assay) [nM]","EC50 ([2]; in Mus musculus, T. cruzi amastigotes cultured in mouse myoblasts, averaged from two independent assays, read-out: EC50 in low throughput validation (repurchased hit)) [nM]"
"O=C(c1ccc(Cl)cc1)C(Oc1ccc(Cl)cc1)n1cncn1 (stereo not drawn) [Compound 13, 2-(4-chlorophenoxy)-1-(4-chlorophenyl)-2-(1H-1,2,4-triazol-1-yl)ethanone]",≤ 5,binds and saturates CYP51 at equimolar 0.5 µM concentrations,"present in amounts comparable to those of 14-demethylated products; also recorded: increase in lanosterol and eburicol precursors and a concomitant decline in episterol, fecosterol and other 14-demethylated intermediates",elimination of intracellular amastigotes,1300,1310,–,–,–
Brc1ccccc1OCCCCCCn1ccnc1 [Compound 1],–,at least low nanomolar binding affinity,lanosterol (f) and eburicol (h) dominated the GC-MS traces; also recorded: fecosterol (e) was completely inhibited; also recorded: suppressed sterol biosynthesis in T. cruzi amastigotes more efficiently than posaconazole,elimination of intracellular amastigotes,–,–,≤ 5,70,17
